Results: US5817692A, “Endoperoxides useful as antiparasitic agents” (priority 1996, dated 1998)
Like-named read-outs stand apart in the source and are kept apart here.

What was measured:
L929 cells = assay: cytotoxicity to L929 cells, MTT assay (viability and replication); format: cell-based; parameters: Toxicity, Mean: unit not given here; conditions: for Toxicity, Score / Toxicity, Mean / inhibition at 0.1 µM / inhibition at 1 µM / inhibition at 10 µM / inhibition at 50 µM: L929 cells; for Toxicity, Mean: MTT; for inhibition at 0.1 µM / inhibition at 1 µM / inhibition at 10 µM / inhibition at 50 µM: Mus musculus, read-out: Toxicity, % of control (inhibition)
Experimental: Toxoplasma gondii is the causative agent of cerebral toxoplasmic encephalitis, an AIDS-related opportunistic infection. The biological activity of the endoperoxide JHU 2886 of the present invention was measured against Toxoplasma gondii cultured in L929 cells.
More specifically, the cytotoxicity of synthetic organic endoperoxide JHU 2886 was tested in L929 cells by measuring the viability and replication of exposed cells. The cytotoxicity of the compound to the cultured cells was measured using the MTT assay (Promega kit), according to the procedure of Carmichael et al. (18). MTT is an abbreviation for [3-(4,5-dimethylthiazol-2-yl)-2,5-dephenyltetrazolium bromide].
This compound is referred to as JHU 2886 in Table 1. In this experiment atovaquone and artemisinin were used as positive controls. Atovaquone is a broad-spectrum anti-infective drug having antimalarial and antitoxoplasmosis activity (19).
^1 The cytotoxicity of each compound for the cultured cells was
measured using the MTT assay (Promega kit) and inhibition of the […]

Toxoplasma gondii = assay: inhibition of intracellular replication of T. gondii in infected L929 cells, uracil incorporation assay; format: cell-based; parameters: Activity, Mean: unit not given here; conditions: for Activity, Mean: uracil incorporation; for inhibition at 1 µM / inhibition at 10 µM / inhibition at 50 µM / inhibition at 0.1 µM: Toxoplasma gondii, L929, read-out: Activity, % of control (inhibition)
Experimental: Toxoplasma gondii is the causative agent of cerebral toxoplasmic encephalitis, an AIDS-related opportunistic infection. The biological activity of the endoperoxide JHU 2886 of the present invention was measured against Toxoplasma gondii cultured in L929 cells. The inhibitory activity of the synthetic organic endoperoxide was tested by measuring the intracellular replication of T. gondii in infected L929 cells. The inhibition of the intracellular replication of T. gondii was determined using the uracil incorporation assay (20). […] This compound is referred to as JHU 2886 in Table 1. In this experiment atovaquone and artemisinin were used as positive controls. Atovaquone is a broad-spectrum anti-infective drug having antimalarial and antitoxoplasmosis activity (19). | measured using the MTT assay (Promega kit) and inhibition of the | intracellular replication of T. gondii was determined using the uracil | incorporation assay.

c1ccc(C23CCCC(c4ccccc4)(CC2)OO3)cc1 [JHU 2886]
toxicity in L929 cells, in words (L929 cells; 50 μM): some toxicity
toxicity in L929 cells, in words (L929 cells; 24, 48 and 72 hours, concentrations as high as 10 μM): little toxicity
Toxicity, Score (L929 cells; 24 hours, dose 0.1 μM): 1 (≤20%)
Toxicity, Mean (L929 cells; 24 hours, dose 0.1 μM): 0.129
Toxicity, Score (L929 cells; 24 hours, dose 1.0 μM): 0
Toxicity, Mean (L929 cells; 24 hours, dose 1.0 μM): 0.133
Toxicity, Score (L929 cells; 24 hours, dose 10.0 μM): 0
Toxicity, Mean (L929 cells; 24 hours, dose 10.0 μM): 0.130
Toxicity, Score (L929 cells; 24 hours, dose 50.0 μM): 2 (>20%-≤40%)
Toxicity, Mean (L929 cells; 24 hours, dose 50.0 μM): 0.089
Toxicity, Score (L929 cells; 48 hours, dose 0.1 μM): 0
Toxicity, Mean (L929 cells; 48 hours, dose 0.1 μM): 0.227
Toxicity, Score (L929 cells; 48 hours, dose 1.0 μM): 0
Toxicity, Mean (L929 cells; 48 hours, dose 1.0 μM): 0.219
Toxicity, Score (L929 cells; 48 hours, dose 10.0 μM): 0
Toxicity, Mean (L929 cells; 48 hours, dose 10.0 μM): 0.217
Toxicity, Score (L929 cells; 48 hours, dose 50.0 μM): 2 (>20%-≤40%)
Toxicity, Mean (L929 cells; 48 hours, dose 50.0 μM): 0.147
Toxicity, Score (L929 cells; 72 hours, dose 0.1 μM): 0
Toxicity, Mean (L929 cells; 72 hours, dose 0.1 μM): 0.479
Toxicity, Score (L929 cells; 72 hours, dose 1.0 μM): 0
Toxicity, Mean (L929 cells; 72 hours, dose 1.0 μM): 0.460
Toxicity, Score (L929 cells; 72 hours, dose 10.0 μM): 0
Toxicity, Mean (L929 cells; 72 hours, dose 10.0 μM): 0.448
Toxicity, Score (L929 cells; 72 hours, dose 50.0 μM): 2 (>20%-≤40%)
Toxicity, Mean (L929 cells; 72 hours, dose 50.0 μM): 0.275
inhibition at 0.1 µM (L929 cells; 24 hours, dose 0.1 μM): 0.26%
inhibition at 1 µM (L929 cells; 24 hours, dose 1.0 μM): 0%
inhibition at 10 µM (L929 cells; 24 hours, dose 10.0 μM): 0%
inhibition at 50 µM (L929 cells; 24 hours, dose 50.0 μM): 31.2%
inhibition at 0.1 µM (L929 cells; 48 hours, dose 0.1 μM): 0%
inhibition at 1 µM (L929 cells; 48 hours, dose 1.0 μM): 0%
inhibition at 10 µM (L929 cells; 48 hours, dose 10.0 μM): 0%
inhibition at 50 µM (L929 cells; 48 hours, dose 50.0 μM): 30.4%
inhibition at 0.1 µM (L929 cells; 72 hours, dose 0.1 μM): 0%
inhibition at 1 µM (L929 cells; 72 hours, dose 1.0 μM): 0%
inhibition at 10 µM (L929 cells; 72 hours, dose 10.0 μM): 0%
inhibition at 50 µM (L929 cells; 72 hours, dose 50.0 μM): 37.4%
antiparasitic activity, in words (Toxoplasma gondii; 24 and 48 hours, all concentrations tested): significant antiparasitic activity
Activity, Score (Toxoplasma gondii; 24 hours, dose 0.1 μM): 2 (>20%-≤40%)
Activity, Mean (Toxoplasma gondii; 24 hours, dose 0.1 μM): 6079
Activity, Score (Toxoplasma gondii; 24 hours, dose 1.0 μM): 3 (>40%-≤70%)
Activity, Mean (Toxoplasma gondii; 24 hours, dose 1.0 μM): 2668
Activity, Score (Toxoplasma gondii; 24 hours, dose 10.0 μM): 4 (>70%-≤90%)
Activity, Mean (Toxoplasma gondii; 24 hours, dose 10.0 μM): 1967
Activity, Score (Toxoplasma gondii; 24 hours, dose 50.0 μM): 4 (>70%-≤90%)
Activity, Mean (Toxoplasma gondii; 24 hours, dose 50.0 μM): 2104
Activity, Score (Toxoplasma gondii; 48 hours, dose 0.1 μM): 1 (≤20%)
Activity, Mean (Toxoplasma gondii; 48 hours, dose 0.1 μM): 14841
Activity, Score (Toxoplasma gondii; 48 hours, dose 1.0 μM): 1 (≤20%)
Activity, Mean (Toxoplasma gondii; 48 hours, dose 1.0 μM): 12880
Activity, Score (Toxoplasma gondii; 48 hours, dose 10.0 μM): 4 (>70%-≤90%)
Activity, Mean (Toxoplasma gondii; 48 hours, dose 10.0 μM): 4428
Activity, Score (Toxoplasma gondii; 48 hours, dose 50.0 μM): 4 (>70%-≤90%)
Activity, Mean (Toxoplasma gondii; 48 hours, dose 50.0 μM): 1808
antiparasitic activity, in words (Toxoplasma gondii; 72 hours, 1 μM and above): significant activity
Activity, Score (Toxoplasma gondii; 72 hours, dose 0.1 μM): 1 (≤20%)
Activity, Mean (Toxoplasma gondii; 72 hours, dose 0.1 μM): 6934
Activity, Score (Toxoplasma gondii; 72 hours, dose 1.0 μM): 1 (≤20%)
Activity, Mean (Toxoplasma gondii; 72 hours, dose 1.0 μM): 6219
Activity, Score (Toxoplasma gondii; 72 hours, dose 10.0 μM): 4 (>70%-≤90%)
Activity, Mean (Toxoplasma gondii; 72 hours, dose 10.0 μM): 1321
Activity, Score (Toxoplasma gondii; 72 hours, dose 50.0 μM): 4 (>70%-≤90%)
Activity, Mean (Toxoplasma gondii; 72 hours, dose 50.0 μM): 1252
inhibition at 1 µM (Toxoplasma gondii; 24 hours, dose 1.0 μM): 69.6%
inhibition at 10 µM (Toxoplasma gondii; 24 hours, dose 10.0 μM): 77.6%
inhibition at 50 µM (Toxoplasma gondii; 24 hours, dose 50.0 μM): 76%
inhibition at 0.1 µM (Toxoplasma gondii; 48 hours, dose 0.1 μM): 6.18%
inhibition at 1 µM (Toxoplasma gondii; 48 hours, dose 1.0 μM): 18.6%
inhibition at 10 µM (Toxoplasma gondii; 48 hours, dose 10.0 μM): 72%
inhibition at 50 µM (Toxoplasma gondii; 48 hours, dose 50.0 μM): 88.6%
inhibition at 0.1 µM (Toxoplasma gondii; 72 hours, dose 0.1 μM): 3.24%
inhibition at 1 µM (Toxoplasma gondii; 72 hours, dose 1.0 μM): 13.2%
inhibition at 10 µM (Toxoplasma gondii; 72 hours, dose 10.0 μM): 81.6%
inhibition at 50 µM (Toxoplasma gondii; 72 hours, dose 50.0 μM): 82.5%
